Laboratory results: patent US12291494B2, “Methods of treating fibrosis” (Nogra Pharma Limited, priority 2012, dated 2025)

Tests used:
α-SMA = assay: Liver gene expression by quantitative Real Time PCR: α-SMA; type: in vivo, mice; settings: liver mRNA, normalized to β-actin; CCl4 group 65.51 ± 22.24
Procedure: (§1) The effect of administration of compound 34 (GED) and the specific CB2 agonist (JWH-133) was evaluated on the level of gene expression of cytokines (IL-1β, TNF-α) and genes involved in the mechanism of fibrosis by quantitative Real Time PCR.
(§2) Total RNA was isolated from livers using Rneasy kit (Macherey Nagel, Hoerdt, France) according to the manufacturer's instructions. RNA quantification was performed using spectrophotometry. After treatment at 37° C. for 30 min with 20-50 units of RNase-free DNase I (Roche Diagnostics Corporation, Indianapolis, IN, USA), oligo-dT primers (Roche Diagnostics Corporation, Indianapolis, USA) were used to synthesize single-stranded cDNA. mRNAs were quantified using SYBR green Master Mix (Applera, Courtaboeuf, France) with murine specific oligonucleotides (see Table 2) in a GeneAmp Abiprism 7000 (Applera, Courtaboeuf, France). In each assay, calibrated and no-template controls were included. Each sample was run in triplicate. SYBR green dye intensity was analyzed using the Abiprism 7000 SDS software (Applera, Courtaboeuf, France). All results were normalized to the unaffected housekeeping gene β-actin.

Collagen-1 = assay: Liver gene expression by quantitative Real Time PCR: collagen-1; type: in vivo, mice
Procedure: as §1, §2

Male C57bl6 mice = assay: CCl4-induced liver fibrosis: histology (Metavir score); type: in vivo
Procedure: Liver fibrosis was induced in Male C57bl6 mice (Charles River, l'Arbresle, France) by injection of carbon tetrachloride (CCl4). The C57bl6 mice weighed 22-25 g and were maintained in laboratory conditions for 1 week before experiment. Animals were housed 5 per cage with food and water available ad libitum.
The effectiveness of compound 34 (specific ligand of PPARg) as compared to JWH-133 (anti-fibrogenic agent) was evaluated. Compound 34 was administered orally in combination with CCl4 injections for ca. 5 weeks. Compound 34 was dosed daily at 200 uL of a 30 mM solution. JWH-133 was administered daily via intraperitoneal injections at 3 mg/kg (dose volume=100 uL). The model of liver fibrosis is induced by chronic exposure to increased dosages of CCl4 for 5 weeks. The first week, mice received an intraperitoneal injection of CCl4, resuspended in olive oil, at the dosage of 80 μl/kg of mice body weight twice a week. At week 2, 3 injections of CCl4 at the dosage of 160 μl/kg were performed every two days. At week 3, 3 injections of CCl4 at the dosage of 240 μl/kg were performed every two days. At week 4, 3 injections of CCl4 at the dosage of 320 μl/kg were performed every two days. Mice were euthanized, at week 5, 3 days after the last CCl4 administration.
The formalin-fixed liver tissue was processed and 5 μm thick paraffin sections were stained with hematoxylin and eosin (H&E) and Picrosirius red staining (specific coloration for collagen in tissue sections) to evaluate the degree of fibrosis in the liver. Each section was analyzed blindly by 3 different experimenters for the quantification of the degree of fibrosis for each lobe of the liver (5) using the Metavir score (see FIG. 2A for Metavir Score chart). The photographs seen in FIG. 2B were obtained with a 20× objective.

SMILES: CCCC(C)(C)c1ccc2c(c1)OC(C)(C)[C@@H]1CC=C(C)C[C@@H]21 [JWH-133]
- α-SMA (α-SMA): 30.07 ± 4.7
- liver concentration of collagen-1 mRNA (Collagen-1; CCl4 mice, result in words): normalizes
- Collagen-1 (Collagen-1; liver mRNA, normalized to β-actin, CCl4 group 138.12 ± 34.68): 87.59 ± 16.97
- decrease of the fibrotic score (adapted Metavir score) compared to untreated animals (Male C57bl6 mice; FIG. 3B): 14.2%
- mean Metavir score (FIG. 3A) (Male C57bl6 mice; compound 34 30 mM 200 uL oral daily, JWH-133 3 mg/kg i.p. daily, CCl4 vehicle group 2.5±0.5): 2±0
- degree of fibrosis (Metavir) (Male C57bl6 mice; result in words): decrease in the degree of fibrosis from severe to moderate fibrosis
- decrease of hepatic fibrotic lesions (Male C57bl6 mice; summary statement): 14%
